Reference: patent publication US20150368242A1, “NOVEL TETRAHYDROPYRIDOPYRIMIDINONE DERIVATIVE” (Ajinomoto Co., Inc., priority 2013, published 2015)
pIC50: −log10 of the molar value. Where a name gives a salt, the structure may show the parent alone. Read-outs that look alike come from different tables or passages of the source.

Target: T1, recombinant human MGAT2 enzyme (Homo sapiens, UniProt Q3SYC2)
T1 construct: made in house; host or cells: CHO-K1 (Jump-In CHO-K1 Kit, Life Technologies); microsomal fraction used as the enzyme solution
T1 sequence (Q3SYC2 whole entry): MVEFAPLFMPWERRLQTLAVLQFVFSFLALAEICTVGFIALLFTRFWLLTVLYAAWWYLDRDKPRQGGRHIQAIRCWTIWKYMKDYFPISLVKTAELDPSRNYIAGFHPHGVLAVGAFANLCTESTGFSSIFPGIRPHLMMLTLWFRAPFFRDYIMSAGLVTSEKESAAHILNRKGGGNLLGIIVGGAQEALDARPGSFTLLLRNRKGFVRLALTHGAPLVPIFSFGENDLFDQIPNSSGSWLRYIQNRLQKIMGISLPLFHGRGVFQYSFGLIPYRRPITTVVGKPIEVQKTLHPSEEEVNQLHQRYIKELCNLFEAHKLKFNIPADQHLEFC
Test: Test for human MGAT2 activity inhibitory action (14C-oleoyl CoA, recombinant enzyme microsomes)
Format: biochemical
Parameters: key to Potency relative to Comparative Example 1 (higher = more potent): % inhibition = {1−(C−B)/(A−B)}×100, B = 10 μM Comparative Example 1
Settings: for pIC50: read-out: IC50
Protocol: The human MGAT2 gene described in Am. J. Physiol. Endocrinol. Metab. 285: E927-E937, 2003 was expressed using Jump-In™ CHO-K1 Kit (Life technologies) as described in the attached manual. The cells were suspended in a buffer containing Tris-hydrochloric acid (pH 7.4) at a final concentration of 1 mM, 1 mM ethylenediaminetetraacetic acid, 1 mM dithiothreitol, 250 mM sucrose, and complete protease inhibitor cocktail (Roche applied Science), and then disrupted using a Teflon homogenizer (AS ONE Corporation), followed by centrifugation at 130 g for 10 minutes. The supernatant was further centrifuged at 100,000 g for 1 hour to obtain a pellet as microsomes containing the recombinant enzyme, and a solution obtained by suspending this pellet at a protein concentration of about 800 to 1900 μg/ml was used as an MGAT recombinant enzyme solution.
To a buffer containing 50 mM Tris-hydrochloric acid (pH 7.4), 6 mM magnesium chloride, and 2 mg/mL bovine serum albumin, a test compound was added, and the final concentration of dimethyl sulfoxide was adjusted to 0.3%. Moreover, 2-monooleoyl glycerol, oleoyl CoA, 1-^14C-oleoyl CoA (Perkin Elmer), and orlistat (SIGMA) were added at final concentrations of 50 μM, 50 μM, 2.2 μM, and 8.3 μM, respectively, followed by incubation at 37° C. for 10 minutes. After 10 minutes, the recombinant human MGAT2 enzyme solution was added at a final concentration of 0.67 μg/mL, and the reaction was started, with the amount of the reaction solution being 150 μl. The reaction was carried out at 37° C. for 30 minutes.
After 30 minutes, the reaction was stopped by adding 300 μl of isopropanol:heptane:water=(80:20:2) to the reaction liquid. Further, 200 μl of heptane and 100 μl of water were added, followed by stirring. Then, 100 μl of the upper layer was transferred to a 96-well plate (Corning), and mixed with 100 μl of liquid scintillator (LumaSafe Plus, Lumac). Then, the ^14C count was quantitatively determined using TopCount NXT™ microplate scintillation luminescence counter (Perkin Elmer).
The ^14C count in a case where no test compound was added was defined as A, the ^14C count in a case where 10 μM of the compound (Comparative Example 1) of Example No. 8 of WO2008/038768 was added was defined as B, and the ^14C count in the case where the test compound was added was taken as C. For this case, {1−(C−B)/(A−B)}×100(%) was calculated as the human MGAT2 activity inhibition ratio of the test compound (shown in the column named vs Comp. Ex. 1 in the following Table). A greater value of the “vs Comparative Example 1” means that the MGAT2 activity inhibitory action of the compound of Example was higher as compared to the MGAT2 activity inhibitory action of the compound of Comparative Example 1 (i.e., the human MGAT2 activity inhibition ratio was higher). […] Since this evaluation test was conducted for two separate groups, the test results of the two groups are shown separately in Table (First Test) and Table 4 (Second Test).
Next, the compounds of Examples 25 to 60 of the present invention were also investigated for their pharmacological action by using the same method as in Examples 1 to 24. […] Note that, a comparative evaluation test against the compound of Comparative Example 1 was conducted for each of the compounds of Examples (in every measurement of the inhibitory activity of the compounds of Examples 25 to 60, the inhibitory activity of the compound of Comparative Example 1 was measured). The 50% inhibition concentrations of Comparative Example 1 in the measurement of the inhibitory activities of the compounds of Examples 25 to 60 were shown in Table 5 as “IC50 (nM) of Comparative Example 1.”

[1] = Second Test (Table 4), relative to Comparative Example 1
[2] = Table 5, Examples 25 to 60, same method
[3] = Table 5, relative to Comparative Example 1 measured in the same run

Row | SMILES | pIC50 (Second Test (Table 4)) | Potency relative to Comparative Example 1 (higher = more potent) [1] | pIC50 [2] | Potency relative to Comparative Example 1 (higher = more potent) [3]
1 | O=C(CCCNCc1ccc(C(F)(F)F)cc1)N1CCc2nc(SC3CCC3)n(-c3ccccc3)c(=O)c2C1 [Example 22, 2-cyclobutylsulfanyl-3-phenyl-6-[4-[[4-trifluoromethyl)phenyl]methylamino]butanoyl]-7,8-dihydro-5H-pyrido[4,3-d]pyrimidin-4-one trifluoroacetate] | 8.42 | 79 | – | –
2 | O=C(CCNCc1ccc(OC(F)(F)F)cc1)N1CCc2nc(SC3CCC3)n(-c3ccccc3)c(=O)c2C1 [Example 24, 2-cyclobutylsulfanyl-3-phenyl-6-[3-[[4-(trifluoromethoxy)phenyl]methylamino]propanoyl]-7,8-dihydro-5H-pyrido[4,3-d]pyrimidin-4-one trifluoroacetate)] | 8.85 | 221 | – | –
3 | [2H]c1c([2H])c([2H])c(C([2H])([2H])NCCC(=O)N2CCc3nc(SC4CCC4)n(-c4ccccc4)c(=O)c3C2)c([2H])c1[2H] [Example 25, 2-cyclobutylsulfanyl-6-[3-[[dideuterio-(2,3,4,5,6-pentadeuteriophenyl)methyl]amino]propanoyl]-3-phenyl-7,8-dihydro-5H-pyrido[4,3-d]pyrimidin-4-one trifluoroacetate] | – | – | 8.66 | 111
4 | Cc1cc2cccc(CNCCC(=O)N3CCc4nc(SC5CCC5)n(-c5ccccc5)c(=O)c4C3)c2o1 [Example 26, 2-cyclobutylsulfanyl-6-[3-[(2-methylbenzofuran-7-yl)methylamino]propanoyl]-3-phenyl-7,8-dihydro-5H-pyrido[4,3-d]pyrimidin-4-one trifluoroacetate] | – | – | 9.00 | 196
5 | O=C(CCNCc1ccc2c(c1)OCO2)N1CCc2nc(SC3CCC3)n(-c3ccccc3)c(=O)c2C1 [Example 28, 6-[3-(1,3-benzodioxol-5-ylmethylamino)propanoyl]-2-cyclobutylsulfanyl-3-phenyl-7,8-dihydro-5H-pyrido[4,3-d]pyrimidin-4-one trifluoroacetate] | – | – | 8.77 | 125
6 | CN(C)c1ccc(CNCCC(=O)N2CCc3nc(SC4CCC4)n(-c4ccccc4)c(=O)c3C2)cc1 [Example 31, 2-cyclobutylsulfanyl-6-[3-[(4-dimethylaminophenyl)methylamino]propanoyl]-3-phenyl-7,8-dihydro-5H-pyrido[4,3-d]pyrimidin-4-one trifluoroacetate] | – | – | 8.80 | 130
7 | O=C(CCNCc1ccc2c(c1)CCO2)N1CCc2nc(SC3CCC3)n(-c3ccccc3)c(=O)c2C1 [Example 32, 2-cyclobutylsulfanyl-6-[3-(2,6-dihydrobenzofuran-5-ylmethylamino)propanoyl]-3-phenyl-7,8-dihydro-5H-pyrido[4,3-d]pyrimidin-4-one trifluoroacetate] | – | – | 8.89 | 166
8 | O=C(CCNCCCCCOc1ccc(C(F)(F)F)cc1)N1CCc2nc(SC3CCC3)n(-c3ccccc3)c(=O)c2C1 [Example 33, 2-cyclobutylsulfanyl-3-phenyl-6-[3-[5-[4-(trifluoromethyl)phenoxy]pentylamino]propanoyl]-7,8-dihydro-5H-pyrido[4,3-d]pyrimidin-4-one trifluoroacetate] | – | – | 9.10 | 228
9 | O=C(CCNCc1nc(Cc2ccccc2)no1)N1CCc2nc(SC3CCC3)n(-c3ccccc3)c(=O)c2C1 [Example 34, 6-[3-[(3-benzyl-1,2,4-oxadiazol-5-yl)methylamino]propanoyl]-2-cyclobutylsulfanyl-3-phenyl-7,8-dihydro-5H-pyrido[4,3-d]pyrimidin-4-one trifluoroacetate] | – | – | 8.49 | 47
10 | O=C(CCNCc1c(F)cccc1F)N1CCc2nc(SC3CCC3)n(-c3ccccc3)c(=O)c2C1 [Example 35, 2-cyclobutylsulfanyl-6-[3-[(2,6-difluorophenyl)methylamino]propanoyl]-3-phenyl-7,8-dihydro-5H-pyrido[4,3-d]pyrimidin-4-one trifluoroacetate] | – | – | 8.96 | 130

Now from value to compound:

Row | pIC50 (Second Test (Table 4)) | Potency relative to Comparative Example 1 (higher = more potent) [1] | pIC50 [2] | Potency relative to Comparative Example 1 (higher = more potent) [3] | SMILES
11 | 9.00 | 300 | – | – | O=C(CCNCc1csc2ccccc12)N1CCc2nc(SC3CCC3)n(-c3ccccc3)c(=O)c2C1 [Example 20, 6-[3-(benzothiophen-3-ylmethylamino)propanoyl]-2-cyclobutylsulfanyl-3-phenyl-7,8-dihydro-5H-pyrido[4,3-d]pyrimidin-4-one trifluoroacetate]
12 | 8.92 | 246 | – | – | O=C(CCNCc1cc2ccccc2[nH]1)N1CCc2nc(SC3CCC3)n(-c3ccccc3)c(=O)c2C1 [Example 21, 2-cyclobutylsulfanyl-6-[3-(1H-indol-2-ylmethylamino)propanoyl]-3-phenyl-7,8-dihydro-5H-pyrido[4,3-d]pyrimidin-4-one trifluoroacetate]
13 | 8.80 | 193 | – | – | O=C(CCNCCc1c[nH]c2ccccc12)N1CCc2nc(SC3CCC3)n(-c3ccccc3)c(=O)c2C1 [Example 23, 2-cyclobutylsulfanyl-6-[3-[2-(1H-indol-3-yl)ethylamino]propanoyl]-3-phenyl-7,8-dihydro-5H-pyrido[4,3-d]pyrimidin-4-one trifluoroacetate)]
14 | – | – | 8.82 | 138 | O=C(CCNCC(O)c1ccccc1)N1CCc2nc(SC3CCC3)n(-c3ccccc3)c(=O)c2C1 (stereo not drawn) [Example 29, 2-cyclobutylsulfanyl-6-[3-[(2-hydroxy-2-phenyl-ethyl)amino]propanoyl]-3-phenyl-7,8-dihydro-5H-pyrido[4,3-d]pyrimidin-4-one trifluoroacetate]
15 | – | – | 8.52 | 69 | O=C(CCNCCc1ccc(O)cc1)N1CCc2nc(SC3CCC3)n(-c3ccccc3)c(=O)c2C1 [Example 30, 2-cyclobutylsulfanyl-6-[3-[2-(4-hydroxyphenyl)ethylamino]propanoyl]-3-phenyl-7,8-dihydro-5H-pyrido[4,3-d]pyrimidin-4-one trifluoroacetate]
16 | – | – | 9.15 | 205 | C[C@@H](CNCCC(=O)N1CCc2nc(SC3CCC3)n(-c3ccccc3)c(=O)c2C1)c1ccccc1 [Example 36]
17 | – | – | 9.30 | 273 | C[C@H](CNCCC(=O)N1CCc2nc(SC3CCC3)n(-c3ccccc3)c(=O)c2C1)c1ccccc1 [Example 37, 2-cyclobutylsulfanyl-3-phenyl-6-[3-[[(2S)-2-phenylpropyl]amino]propanoyl]-7,8-dihydro-5H-pyrido[4,3-d]pyrimidin-4-one trifluoroacetate]
18 | – | – | 8.85 | 211 | O=C(CCNCCNc1ccccc1)N1CCc2nc(SC3CCC3)n(-c3ccccc3)c(=O)c2C1 [Example 38, 6-[3-(2-aminolinoethylamino)propanoyl]-2-cyclobutylsulfanyl-3-phenyl-7,8-dihydro-5H-pyrido[4,3-d]pyrimidin-4-one trifluoroacetate]
